Laboratory results as given in patent US9572814B2, “Methods of improving the pharmacokinetics of doxepin” (Pernix Sleep, Inc., priority 2006, dated 2017).
Read-outs that look alike come from different tables or passages of the source.

Tests used:
clinical = conditions: both, human, plasma, po, 6 milligram
[1] = calculated from geometric LS means, single 6 milligram dose
[2] = plasma, single 6 milligram doxepin tablet, fasted (N = 15)
[3] = plasma, single 6 milligram doxepin tablet, fed (N = 16)
[4] = ratio of geometric LS means, 6 milligram doxepin tablet
[5] = single 6 milligram doxepin tablet, fasted (N 15)
[6] = single 6 milligram doxepin tablet, fed (N 16)
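Also: healthy young adult men and women, dosed in the morning. Doxepin in plasma by validated HPLC-MS/MS (LLOQ 0.05 ng/mL), parameters by noncompartmental analysis on actual elapsed time after dosing.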

## CN(C)CCC=C1c2ccccc2COc2ccccc21 [doxepin]
clinical
  Cmax: 0.854 ng/mL
  Tmax: 3 h
Both fed and fasted states (six and five subjects, respectively)
  time postdose at which detectable plasma levels were first observed: 30 min
Both treatments (fed and fasted), lower limit of quantification 0.05 ng/mL
  time postdose up to which plasma doxepin concentrations remained quantifiable: up to 48 hours
[1]
  AUC0-∞, Effect of Food (% of fasted state): 141 % of fasted state
  Cmax, Effect of Food (% of fasted state): 115 % of fasted state
Median Tmax, single 6 milligram dose
  Tmax, Effect of Food (% of fasted state): 200 % of fasted state
[2]
  AUC0-Tlast, arithmetic mean: 12.6 ng·h/mL
  AUC0-∞, arithmetic mean: 14.1 ng·h/mL
  t1/2, arithmetic mean: 14.4 h
  λz, arithmetic mean: 0.0623 h⁻¹
[3]
  Cmax, arithmetic mean: 0.951 ng/mL
  Tmax, median: 6.0 h
  λz, arithmetic mean: 0.0445 h⁻¹
[4]
  AUC0-Tlast, Pairwise Comparison Ratio Fed/Fasted: 145.6%
  AUC0-∞, Pairwise Comparison Ratio Fed/Fasted: 141.3%
  Cmax, Pairwise Comparison Ratio Fed/Fasted: 114.6%
Single 6 milligram dose
  increase in AUC0-Tlast under fed conditions compared to fasted conditions: 46%
  mean CL/F lower in the fed state compared to the fasted state: 43%
  mean Vd/F lower in the fed state compared to the fasted state: 14%
  time postdose by which all subjects had detectable concentrations: ≤ 90 min
Single 6 milligram dose, fasted state (Treatment A)
  time postdose at which mean plasma concentrations reach Cmax: 3.0 h
Single 6 milligram dose, fed state (Treatment B)
  time postdose at which mean plasma concentrations reach Cmax: 6.0 h
[5]
  AUC0-Tlast, Geometric LS Mean: 9.194 ng·h/mL
  AUC0-∞, Geometric LS Mean: 10.72 ng·h/mL
  Cmax, Geometric LS Mean: 0.717 ng/mL
Single 6 milligram doxepin tablet, fasted (N = 15)
  CL/F, arithmetic mean: 837 L/h
[6]
  AUC0-Tlast, Geometric LS Mean: 13.39 ng·h/mL
  AUC0-∞, Geometric LS Mean: 15.14 ng·h/mL
  Cmax, Geometric LS Mean: 0.822 ng/mL
Single 6 milligram doxepin tablet, fed (N = 16)
  CL/F, arithmetic mean: 477 L/h
